Measured values from patent US12617777B2, “GPR84 antagonists and uses thereof” (Liminal BioSciences Limited, priority 2021, dated 2026).

biological target: T1, human GPR84 receptor (Homo sapiens, UniProt Q9NQS5); test: Gαi biosensor BRET assay in HEK293 cells (antagonism of ZQ-16); assay type: cell-based; details: HEK293, single concentration 2 μM (designated A)
T1 construct: host or cells: HEK293, transient transfection
Summary of the method: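 HEK293 cells transiently expressing human GPR84, Gαi2-Rluc8, GFP10-Gγ2 and Gβ1, in Tyrode's buffer pH 7.5. Compounds preincubated 5 min at 37° C, then 200 nmol/L ZQ-16 for 5 min at room temperature; coelenterazine 400A 5 μmol/L. BRET2 acceptor/donor ratio, background- and vehicle-corrected net BRET.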

T1 sequence (Q9NQS5 whole entry): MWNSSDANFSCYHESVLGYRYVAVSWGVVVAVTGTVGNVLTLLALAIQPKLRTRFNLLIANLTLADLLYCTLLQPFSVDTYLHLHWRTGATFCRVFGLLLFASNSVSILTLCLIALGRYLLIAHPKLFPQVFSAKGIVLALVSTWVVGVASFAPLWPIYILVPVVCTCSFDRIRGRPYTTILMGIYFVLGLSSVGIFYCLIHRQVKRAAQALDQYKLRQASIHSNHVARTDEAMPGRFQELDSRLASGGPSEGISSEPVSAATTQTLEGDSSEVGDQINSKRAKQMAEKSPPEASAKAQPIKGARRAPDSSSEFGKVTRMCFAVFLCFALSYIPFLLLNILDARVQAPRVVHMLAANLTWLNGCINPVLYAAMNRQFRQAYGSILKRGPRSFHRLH

inhibition at 2 µM | SMILES
≤ 25% | Cc1cc(C#CC2CC2)ccc1-c1cn(CC23CCC(CC2)CO3)nn1 [Compound I-509]
25 to 50% | CO[C@@H](c1cn(C[C@@H]2CCCCO2)nn1)c1cc(C#CC2CC2)ccc1C [Compound I-513]
≤ 25% | Cc1cc(OC2CN(Cc3ccccn3)C2)ccc1-c1cn(CC2CCCCO2)nn1 (stereo not shown) [Compound I-514]
≤ 25% | Cc1cc(C#CC2CC2)ccc1-c1cn(CC23CC4CC(CC(C4)O2)C3)nn1 [Compound I-523]
≤ 25% | Cc1cc(C#CC2CC2)ccc1-c1cn(CC2CCC(=O)N2)nn1 (stereo not shown) [Compound I-542]
≤ 25% | Cc1cc(C#CC2CC2)ccc1-c1cn(Cc2ccn(C)n2)nn1 [Compound I-543]
25 to 50% | Cc1ccc(C#CC2CC2)cc1Cc1cn(CC2COc3ncccc3O2)nn1 (stereo not shown) [Compound I-552]
> 75% | Cc1cc(C#CC2CC2)ccc1-c1cn(CC2(C)CCCCO2)nn1 (stereo not shown) [Compound I-554]
≤ 25% | Cc1cc(C#CC2CC2)ccc1-c1cn(CC23CC(C)(CO2)C3)nn1 [Compound I-556]
≤ 25% | Cc1cc(Cn2cc(-c3ccc(C#CC4CC4)cc3C)nn2)on1 [Compound I-557]

same assay, conditions: HEK293, single concentration 10 μM (designated F)

inhibition at 10 µM | SMILES
50 to 75% | Cc1cc(N2CC(C(C)O)C2)ccc1-c1cn(CC2CCCCO2)nn1 (stereo not shown) [Compound I-508]
≤ 25% | Cc1cc(C#CC2CC2)ccc1-c1cn(CC2COCCN2)nn1 (stereo not shown) [Compound I-515]
≤ 25% | Cc1cc(C#CC2CC2)ccc1-c1cn(CC2CCCC(=O)N2)nn1 (stereo not shown) [Compound I-516]
≤ 25% | Cc1cc(C#CC2CC2)ccc1-c1cn(Cc2nccn2C)nn1 [Compound I-517]
> 75% | CN(C)c1cc(C#CC2CC2)cnc1-c1cn(CC2CCCCO2)nn1 (stereo not shown) [Compound I-518]
25 to 50% | Cc1cc(N2CC(C)(F)C2)ccc1-c1cn(CC2CCCCO2)nn1 (stereo not shown) [Compound I-519]
50 to 75% | Cc1cc(N2CC(C(F)F)C2)ccc1-c1cn(CC2CCCCO2)nn1 (stereo not shown) [Compound I-520]
≤ 25% | Cc1cc(N2CCC3(CC2)CN(Cc2ccccn2)C3)ccc1-c1cn(CC2CCCCO2)nn1 (stereo not shown) [Compound I-521]
50 to 75% | Cc1cc(C#CC2CC2)ccc1-c1cn(CC2OCCCC2(C)C)nn1 (stereo not shown) [Compound I-522, 4-(4-(cyclopropylethynyl)-2-methylphenyl)-1-((3,3-dimethyltetrahydro-2H-pyran-2-yl)methyl)-1H-1,2,3-triazole]
≤ 25% | Cc1cc(N2CC(C)(O)C2)ccc1-c1cn(CC2CCCCO2)nn1 (stereo not shown) [Compound I-524]
≤ 25% | Cc1cc(C#CC2CC2)ccc1-c1cn(CC23CC(CO2)C3)nn1 [Compound I-525]
50 to 75% | CC(C)Oc1cc(C#CCNc2ccccc2)cnc1-c1cn(CC2CC(C)(C)CO2)nn1 (stereo not shown) [Compound I-526]
≤ 25% | Cc1cc(C#CC2CC2)ccc1-c1cn(CC2COCCN2C)nn1 (stereo not shown) [Compound I-527]
≤ 25% | Cc1cc(C#CC2CC2)ccc1-c1cn(Cc2cncn2C)nn1 [Compound I-528]
≤ 25% | Cc1cc(N2CC(F)C2)ccc1-c1cn(CC2CCCCO2)nn1 (stereo not shown) [Compound I-529]
25 to 50% | Cc1cc(N2CCN(Cc3ccccn3)CC2)ccc1-c1cn(CC2OCCCO2)nn1 [Compound I-532]
≤ 25% | Cc1cc(N2CCN(c3ccccn3)CC2)ccc1-c1cn(CC2CCCCO2)nn1 (stereo not shown) [Compound I-533]
≤ 25% | Cc1cc(N2CCN(C(=O)c3ccccn3)CC2)ccc1-c1cn(CC2CCCCO2)nn1 (stereo not shown) [Compound I-534]
≤ 25% | CC(c1cccc(N2CC(C)(C)C2)c1)c1cn(CC2CCCCO2)nn1 (stereo not shown) [Compound I-536]
> 75% | Cc1cc(N2CC(C)(Nc3ccccc3)C2)ccc1-c1cn(CC2CCCCO2)nn1 (stereo not shown) [Compound I-537, 3-methyl-1-(3-methyl-4-(1-((tetrahydro-2H-pyran-2-yl)methyl)-1H-1,2,3-triazol-4-yl)phenyl)-N-phenylazetidin-3-amine]
> 75% | Cc1cc(C#CCNC(=O)OC(C)(C)C)cnc1-c1cn(CC2CCCCO2)nn1 (stereo not shown) [Compound I-538]
≤ 25% | Cc1cc(C#CC2CC2)ccc1-c1cn(CC2CCC(=O)O2)nn1 (stereo not shown) [Compound I-539]

inhibition at 10 µM | SMILES
> 75% | Cc1cc(C#CC2CCC2)ccc1-c1cn(CC2CCCCO2)nn1 (stereo not shown) [Compound I-540]
25 to 50% | Cc1cc(N2CC(Nc3cnn(C)c3)C2)ccc1-c1cn(CC2CCCCO2)nn1 (stereo not shown) [Compound I-541]
25 to 50% | Cc1cc(N2CC(CF)C2)ccc1-c1cn(CC2CCCCO2)nn1 (stereo not shown) [Compound I-544]
≤ 25% | Cc1cc(N2CCN(c3cccnc3)CC2)ccc1-c1cn(CC2CCCCO2)nn1 (stereo not shown) [Compound I-545]
50 to 75% | Cc1cc(C2CCCN(Cc3ccccn3)C2)ccc1-c1cn(CC2CCCCO2)nn1 (stereo not shown) [Compound I-546]
25 to 50% | Cc1cc(N2CCN(Cc3ncccn3)CC2)ccc1-c1cn(CC2CCCCO2)nn1 (stereo not shown) [Compound I-547]
50 to 75% | Cc1cc(N2CCN(Cc3cccnn3)CC2)ccc1-c1cn(CC2CCCCO2)nn1 (stereo not shown) [Compound I-548]
50 to 75% | Cc1cc(N2CCN(Cc3ccncc3)CC2)ccc1-c1cn(CC2CCCCO2)nn1 (stereo not shown) [Compound I-549]
50 to 75% | Cc1cc(N2CC3CCC2CN3Cc2ccccn2)ccc1-c1cn(CC2CCCCO2)nn1 (stereo not shown) [Compound I-550]
25 to 50% | Cc1ccc(C#CC2CC2)cc1Cc1cn(CC2CCc3ccccc3O2)nn1 (stereo not shown) [Compound I-551]
≤ 25% | Cc1cc(N2CCC(C)(C)C2)cnc1-c1cn(CC2CCCCO2)nn1 (stereo not shown) [Compound I-555]
≤ 25% | Cc1cc(CN2CC(=O)NC2=O)ccc1-c1cn(CC2CCCCO2)nn1 (stereo not shown) [Compound I-558]
≤ 25% | Cc1cc(C(=O)Nc2cc[nH]n2)ccc1-c1cn(CC2CCCCO2)nn1 (stereo not shown) [Compound I-559]
25 to 50% | FC(F)c1cc(C#CC2CC2)ccc1-c1cn(CC2CCCCO2)nn1 (stereo not shown) [Compound I-560]
> 75% | Cc1cc(N2CCN(Cc3ccccn3)CC2)ccc1-c1cn(CC2CC(C)(C)O2)nn1 (stereo not shown) [Compound I-561]
≤ 25% | Cc1cc(N2CCN(c3ccncc3)CC2)ccc1-c1cn(CC2CCCCO2)nn1 (stereo not shown) [Compound I-563]
≤ 25% | Cc1ccc(N2CCN(Cc3ccccn3)CC2)cc1-c1cn(CC2CCCCO2)nn1 (stereo not shown) [Compound I-564]
50 to 75% | Cc1cc(N2CCN(Cc3ccncn3)CC2)ccc1-c1cn(CC2CCCCO2)nn1 (stereo not shown) [Compound I-565]
25 to 50% | Cc1cc(N2CCN(Cc3cncnc3)CC2)ccc1-c1cn(CC2CCCCO2)nn1 (stereo not shown) [Compound I-566]
50 to 75% | Cc1cc(N2CC3(CCN(c4ccccn4)CC3)C2)ccc1-c1cn(CC2CCCCO2)nn1 (stereo not shown) [Compound I-567]
≤ 25% | Cc1ccc(C#CC2CC2)cc1-c1cn(CC2OCCCC2(C)C)nn1 (stereo not shown) [Compound I-568]
> 75% | Cc1cc(C#CC2CC2)ccc1-c1cn(CC2CC3(CC3)CO2)nn1 (stereo not shown) [Compound I-569]

same assay, conditions: HEK293 cells, antagonism of 200 nmol/L ZQ-16

IC50 | SMILES
> 2 µM | CO[C@@H](c1cn(C[C@@H]2CCCCO2)nn1)c1cc(C#CC2CC2)ccc1C [Compound I-513]
1 to 3 µM | CN(C)c1cc(C#CC2CC2)cnc1-c1cn(CC2CCCCO2)nn1 (stereo not shown) [Compound I-518]
≤ 0.3 µM | CC(C)Oc1cc(C#CCNc2ccccc2)cnc1-c1cn(CC2CC(C)(C)CO2)nn1 (stereo not shown) [Compound I-526]
0.3 to 1 µM | Cc1cc(N2CC(C)(Nc3ccccc3)C2)ccc1-c1cn(CC2CCCCO2)nn1 (stereo not shown) [Compound I-537, 3-methyl-1-(3-methyl-4-(1-((tetrahydro-2H-pyran-2-yl)methyl)-1H-1,2,3-triazol-4-yl)phenyl)-N-phenylazetidin-3-amine]
0.3 to 1 µM | Cc1cc(C#CCNC(=O)OC(C)(C)C)cnc1-c1cn(CC2CCCCO2)nn1 (stereo not shown) [Compound I-538]
> 3 µM | Cc1cc(N2CCN(Cc3cccnn3)CC2)ccc1-c1cn(CC2CCCCO2)nn1 (stereo not shown) [Compound I-548]
1 to 3 µM | Cc1cc(N2CCN(Cc3ccncc3)CC2)ccc1-c1cn(CC2CCCCO2)nn1 (stereo not shown) [Compound I-549]
> 3 µM | Cc1cc(N2CCN(Cc3ccccn3)CC2)ccc1-c1cn(CC2CC(C)(C)O2)nn1 (stereo not shown) [Compound I-561]
1 to 3 µM | Cc1cc(N2CC3(CCN(c4ccccn4)CC3)C2)ccc1-c1cn(CC2CCCCO2)nn1 (stereo not shown) [Compound I-567]
1 to 3 µM | Cc1cc(C#CC2CC2)ccc1-c1cn(CC2CC3(CC3)CO2)nn1 (stereo not shown) [Compound I-569]
